Data as given in paper PMC3340143 (The Journal of Biological Chemistry, 2012).

Target: T1, CymA (Shewanella oneidensis, UniProt Q8E8S0)
T1 sequence (Q8E8S0 1-187): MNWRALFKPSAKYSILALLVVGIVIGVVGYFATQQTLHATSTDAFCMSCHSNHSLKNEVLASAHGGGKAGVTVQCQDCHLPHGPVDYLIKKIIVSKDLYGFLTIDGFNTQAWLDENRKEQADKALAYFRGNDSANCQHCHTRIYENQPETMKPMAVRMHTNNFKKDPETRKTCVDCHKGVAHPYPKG
Assay: protein-film cyclic voltammetry, inhibition of menaquinone-7 reduction
Format: biochemical

Work on `CCCCCCCc1cc(O)c2ccccc2[n+]1[O-]` [HQNO] yielded a Ki of 0.8 µM.
